Assay results from patent US20050107289A1, “Anti-microbial peptides and compositions” (priority 2001, published 2005).
Like-named read-outs stand apart in the source and are kept apart here. Non-standard residues stand in square brackets, D forms with d. Residues, ends and D or L forms follow the SMILES beside them. Nle = CCCC[C@H](N)C(=O)O

Tests used:
[1] = system: S. aureus (MRSA) ATCC 33591; format: cell-based, Staphylococcus aureus; details: Table 9
Description: (§1) The antimicrobial activity of the peptides was determined using a broth dilution assay essentially as descried in the guidelines of the National Committee for […] (NCCLS) [National Committee for Clinical Laboratory Standards. Methods for dilution antimicrobial susceptibility tests for bacteria that grow aerobically. Fourth edition. Approved Standard (1997). Document M7-A4. […] The microdilution method has the advantages of requiring less amount of peptide for each assay and the possibility of multiple simultaneous inoculations and was used in most studies. Several of the strains of bacteria tested are further described in Table 3.
(§2) Preparation of peptide solutions. Stock peptide solutions were prepared in 5% DMSO in aq. sucrose (9%). Determination of peptide concentrations was done by quantitative HPLC analysis using known concentrations of internal standards and/or by measuring UV absorption of tryptophane-containing peptide solutions in H2O (λ=280 εTrp: 5690). Serial 2-fold dilutions were made in the above DMSO/aq. sucrose (9%) mixture with concentrations ranging approximately 400-2 μg/ml and aliquots were dispensed in test tubes (100 μl) for the macrodilution test or in microtiter plates (20 μl) for the microdilution assays.
(§3) Inoculum preparation. Overnight cultures of different microorganisms grown in suitable media were diluted 4000 times to an approximate inoculum size of 2.5×10^5 cfu/ml.
(§4) Macrodilution method. Macrodilution methods were performed using procedures similar to those described in the National Committee for Clinical Laboratory Standards. Methods for dilution antimicrobial susceptibility tests for bacteria that grow aerobically. Fourth edition. Approved Standard (1997). Document M7-A4. (NCCLS,Villanova, Pa., 1997). Two ml aliquots of the above inoculum were dispensed to test tubes containing different peptide solutions.
(§5) Microdilution method. Microdilution methods were performed using procedures similar to those described in the National Committee for Clinical Laboratory Standards. Methods for dilution antimicrobial susceptibility tests for bacteria that grow aerobically. Fourth edition. Approved Standard (1997). Document M7-A4.

murine red blood cells = test: Red blood cell hemolysis; format: cell-based, mouse
Description: Selectivity of cyclic peptides for bacterial over mammalian cells was evaluated by measuring red blood cell hemolytic activities as described in Tosteson, M. T. Holmes, S. J., Razin, M. and Tosteson, D. C. Melittin Lysis of Red Cells, J. Membrane Biol. 87, 35-44(1985). Heparinized murine blood was centrifuged at 1000×g for 10 minutes. The supernatant and the buffy coat were removed. Erythrocytes were washed three times with 0.9% saline solution and then resuspended to a concentration of 5% in saline containing 10% FBS (v/v). Red blood cells were then treated with serial dilutions of test peptides in a 96 well plate at 37° C. for 30 minutes. Control samples included a saline solution arid 1% Triton X-100 as 0 and 100% hemolysis, respectively. In some cases, mellitin was used as a further control. Mellitin is a linear peptide that is hemolytic against mammalian red blood cells in vitro at a concentration of about 10 μg/ml. Plates were centrifuged at 1000 g for 10 minutes. Aliquots of the supernatant were diluted 2 times with saline solution and the absorbance was measured at 560 nm.

[2] = system: vancomycin-resistant Enterococus faecalis (VRE)(ATCC 51575); format: cell-based, Enterococcus faecalis; design: key to VRE (in vitro activity): peptide concentration in μg/ml (broth dilution assay); details: Table 9
Description: as §1, §2, §3, §4, §5

[3] = media b: cation adjusted Meuller Hinton broth (MHBII)
[4] = media c: Brain Heart Infusion (BHI)
[5] = media a: anti-microbial media-3 (AM-3)

Row | SMILES | MRSA (in vitro activity) [1, 3] | RBC Hemolysis (HD50) (murine red blood cells) | VRE (in vitro activity) [2, 4] | MRSA (in vitro activity) [1, 5] | VRE (in vitro activity) ([2]; media a: AM-3) | further results
1 | CC(C)C[C@@H]1NC(=O)[C@@H](Cc2c[nH]c3ccccc23)NC(=O)[C@H](Cc2ccccc2)NC(=O)[C@@H](CCCNC(=N)N)NC(=O)[C@H](CCC(N)=O)NC(=O)[C@@H](CCCNC(=N)N)NC(=O)[C@H](Cc2c[nH]c3ccccc23)NC(=O)[C@@H](Cc2c[nH]c3ccccc23)NC1=O [SEQ ID NO:68, [QRFWLWWR]] (cyclo(Q[dR]F[dW]L[dW]W[dR])) | 7.5 | 60 |  |  |  | VRE (in vitro activity) ([2]; media b: MHBII): 3.8
2 | CC(C)C[C@@H]1NC(=O)[C@@H](Cc2c[nH]c3ccccc23)NC(=O)[C@H](CCCCN)NC(=O)[C@@H](Cc2c[nH]cn2)NC(=O)[C@H](CCC(N)=O)NC(=O)[C@@H](Cc2c[nH]cn2)NC(=O)[C@H](CCCCN)NC(=O)[C@@H](Cc2c[nH]c3ccccc23)NC1=O [SEQ ID NO:87, [KHQHKWLW]] (cyclo(K[dH]Q[dH]K[dW]L[dW])) | 6 | 200 | 12 |  |  | 
3 | CC(C)C[C@H]1NC(=O)[C@H](Cc2ccccc2)NC(=O)[C@@H](Cc2c[nH]cn2)NC(=O)[C@H](CCCCN)NC(=O)[C@@H](Cc2c[nH]cn2)NC(=O)[C@H](CCCCN)NC(=O)[C@@H](CC(C)C)NC(=O)[C@H](Cc2c[nH]c3ccccc23)NC1=O [SEQ ID NO:72, [KHKHFLWL]] (cyclo(K[dH]K[dH]F[dL]W[dL])) | 8 | 200 | 16 |  |  | 
4 | CC(C)C[C@H]1NC(=O)[C@H](Cc2c[nH]c3ccccc23)NC(=O)[C@@H](Cc2c[nH]c3ccccc23)NC(=O)[C@H](CCCCN)NC(=O)[C@@H](Cc2c[nH]cn2)NC(=O)[C@H](Cc2c[nH]c3ccccc23)NC(=O)[C@@H](CC(C)C)NC(=O)[C@H](Cc2c[nH]c3ccccc23)NC1=O [SEQ ID NO:43, [KWWLWLWH]] (cyclo(K[dW]W[dL]W[dL]W[dH])) |  | >23 |  | 13 | 17 | 
5 | CC(C)C[C@H]1NC(=O)[C@H](CCCCN)NC(=O)[C@@H](CO)NC(=O)[C@H](CCCCN)NC(=O)[C@@H](CC(C)C)NC(=O)[C@H](C(C)C)NC(=O)[C@@H](CC(C)C)NC(=O)[C@H](C(C)C)NC1=O [SEQ ID NO:60, [KSKLVLVL]] (cyclo(K[dS]K[dL]V[dL]V[dL])) | >220 | >220 | >220 |  |  | 
6 | CC(C)C[C@@H]1NC(=O)[C@@H](Cc2c[nH]c3ccccc23)NC(=O)[C@H](CCCCN)NC(=O)[C@@H](CO)NC(=O)[C@H](CO)NC(=O)[C@@H](CO)NC(=O)[C@H](CCCCN)NC(=O)[C@@H](Cc2c[nH]c3ccccc23)NC1=O [SEQ ID NO:93, [KSSSKWLW]] (cyclo(K[dS]S[dS]K[dW]L[dW])) | 6 | 175 | 6 |  |  | 
7 | CC(C)C[C@H]1NC(=O)[C@H](Cc2c[nH]c3ccccc23)NC(=O)[C@@H](CCCNC(=N)N)NC(=O)[C@H](CCCCN)NC(=O)[C@@H](CO)NC(=O)[C@H](CCCCN)NC(=O)[C@@H](CC(C)C)NC(=O)[C@H](Cc2c[nH]c3ccccc23)NC1=O [SEQ ID NO:75, [KRWLWLKS]] (cyclo(K[dR]W[dL]W[dL]K[dS])) |  | >48 |  | 9 | 22 | 
8 | CC(C)C[C@@H]1NC(=O)[C@@H](Cc2c[nH]c3ccccc23)NC(=O)[C@H](CO)NC(=O)[C@@H](Cc2c[nH]c3ccccc23)NC(=O)[C@H](CCCCN)NC(=O)[C@@H](Cc2c[nH]c3ccccc23)NC(=O)[C@H](CCCCN)NC(=O)[C@@H](Cc2c[nH]c3ccccc23)NC1=O [SEQ ID NO:107, [KWKWSWLW]] (cyclo(K[dW]K[dW]S[dW]L[dW])) | 12 | 150 | 12 |  |  | 
9 | CC(C)C[C@H]1NC(=O)[C@H](Cc2c[nH]c3ccccc23)NC(=O)[C@@H](CCCNC(=N)N)NC(=O)[C@H](CCCCN)NC(=O)[C@@H](Cc2c[nH]cn2)NC(=O)[C@H](CCCCN)NC(=O)[C@@H](CC(C)C)NC(=O)[C@H](Cc2c[nH]c3ccccc23)NC1=O [SEQ ID NO:74, [KRWLWLKH]] (cyclo(K[dR]W[dL]W[dL]K[dH])) |  | >130 |  | 5 | 7 | 
10 | CCCC[C@@H]1NC(=O)[C@@H](CC(C)C)NC(=O)[C@H](CCCCN)NC(=O)[C@@H](CO)NC(=O)[C@H](CCCCN)NC(=O)[C@@H](CC(C)C)NC(=O)[C@H](CCCC)NC(=O)[C@@H](CC(C)C)NC1=O [SEQ ID NO:59, [KSKLNleLNleL]] (cyclo(K[dS]K[dL][Nle][dL][Nle][dL])) | 220 | >220 | >200 |  |  | 
11 | CC(C)C[C@H]1NC(=O)[C@H](CCCCN)NC(=O)[C@@H](CO)NC(=O)[C@H](CCCCN)NC(=O)[C@@H](CC(C)C)NC(=O)[C@H](CCCNC(=N)N)NC(=O)[C@@H](CC(C)C)NC(=O)[C@H](CCCNC(=N)N)NC1=O [SEQ ID NO:106, [KSKLRLRL]] (cyclo(K[dL]R[dL]R[dL]K[dS])) |  | >400 |  |  |  | MRSA (in vitro activity) ([1]; media b: cation adjusted Meuller Hinton broth (MHBII), listed as [KSKLRLRL] (106)): >400; VRE (in vitro activity) ([2]; media c: Brain Heart Infusion (BHI), listed as [KSKLRLRL] (106)): >400
12 | CC(C)C[C@@H]1NC(=O)[C@@H](Cc2c[nH]c3ccccc23)NC(=O)[C@H](CCCCN)NC(=O)[C@@H](Cc2c[nH]cn2)NC(=O)[C@H](CCCCN)NC(=O)[C@@H](Cc2c[nH]c3ccccc23)NC1=O [SEQ ID NO:119, [KHKWLW]] (cyclo(K[dH]K[dW]L[dW])) |  | >115 |  | 12 | 60 | 
13 | CC(C)C[C@H]1NC(=O)[C@H](CCCCN)NC(=O)[C@@H](CO)NC(=O)[C@H](CCCCN)NC(=O)[C@@H](CC(C)C)NC(=O)[C@H](Cc2ccccc2)NC(=O)[C@@H](CC(C)C)NC(=O)[C@H](Cc2ccccc2)NC1=O [SEQ ID NO:54, [KSKLFLFL]] (cyclo(F[dL]F[dL]K[dS]K[dL])) |  | >200 | 200 |  |  | MRSA (in vitro activity) ([1]; media b: cation adjusted Meuller Hinton broth (MHBII), listed as [KSKLFLFL] (54)): 50
14 | CC(C)C[C@H]1NC(=O)[C@H](Cc2c[nH]c3ccccc23)NC(=O)[C@@H](Cc2c[nH]c3ccccc23)NC(=O)[C@H](CCCCN)NC(=O)[C@@H](Cc2c[nH]c3ccccc23)NC(=O)[C@H](CCCCN)NC(=O)[C@@H](CC(C)C)NC(=O)[C@H](Cc2c[nH]c3ccccc23)NC1=O [SEQ ID NO:44, [KWWLWLKW]] (cyclo(K[dW]W[dL]W[dL]K[dW])) |  | >58 |  | 4 | 4 | 
15 | CC(C)C[C@H]1NC(=O)[C@H](C)NC(=O)[C@@H](CC(C)C)NC(=O)[C@H](CCCCN)NC(=O)[C@@H](Cc2c[nH]cn2)NC(=O)[C@H](CCCCN)NC(=O)[C@@H](CC(C)C)NC(=O)[C@H](C)NC1=O [SEQ ID NO:45, [KHKLALAL]] (cyclo(K[dH]K[dL]A[dL]A[dL])) | 50 | >200 | 200 |  |  | 
